PubChem BioAssay (NCI)
Where “and” joins values, the source holds several entries; their conditions need not be identical. Identical values can stand only once.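 Interpolation was linear, between the two tested concentrations surrounding the appropriate level; five concentrations were tested over 48 hours in 96-well plates. GI50 marks 50% less growth. At the TGI there is no net growth.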

Key:
Experiment in all cases: DTP human tumour cell line panel, 48 h
SK-OV-3 ovarian = tested on: SK-OV-3 ovarian
HCT-116 colon = tested on: HCT-116 colon
IGROV1 ovarian = tested on: IGROV1 ovarian
HCT-15 colon = tested on: HCT-15 colon
LOX IMVI melanoma = tested on: LOX IMVI melanoma
KM12 colon = tested on: KM12 colon
MOLT-4 leukemia = tested on: MOLT-4 leukemia
HOP-92 NSCLC = tested on: HOP-92 NSCLC
A498 renal = tested on: A498 renal
SK-MEL-28 melanoma = tested on: SK-MEL-28 melanoma
HCC-2998 colon = tested on: HCC-2998 colon
OVCAR-5 ovarian = tested on: OVCAR-5 ovarian
DLD-1 colon = tested on: DLD-1 colon
SK-MEL-2 melanoma = tested on: SK-MEL-2 melanoma
RXF 393 renal = tested on: RXF 393 renal

Row | SMILES | TGI (SK-OV-3 ovarian) | TGI (HCT-116 colon) | TGI (IGROV1 ovarian) | TGI (HCT-15 colon) | TGI (LOX IMVI melanoma) | TGI (KM12 colon) | TGI (MOLT-4 leukemia) | GI50 (HOP-92 NSCLC) | TGI (HOP-92 NSCLC) | GI50 (A498 renal) | TGI (A498 renal) | GI50 (SK-MEL-28 melanoma) | TGI (SK-MEL-28 melanoma) | TGI (HCC-2998 colon) | TGI (OVCAR-5 ovarian) | GI50 (DLD-1 colon) | TGI (DLD-1 colon) | GI50 (SK-MEL-2 melanoma) | TGI (SK-MEL-2 melanoma) | TGI (RXF 393 renal)
1 | COc1cc(C2c3cc4c(cc3[C@@H](NCCCN(C)C)[C@H]3COC(=O)C23)OCO4)cc(OC)c1O (some centres not stated) | 1.26 µM and 1.2 µM | 6.14 µM | 2.03 µM and 4.03 µM | 1.69 µM and 4.63 µM | 0.927 µM and 2.11 µM | 2.26 µM and 3.61 µM | 0.21 µM | 0.0952 µM and 0.482 µM | 0.368 µM and 1.85 µM | 0.0838 µM and 0.19 µM | 0.327 µM and 0.696 µM | 0.764 µM and 2.76 µM | 2.09 µM and 8.62 µM | 1.48 µM and 1.35 µM | 2.59 µM and 5.52 µM | 1.03 µM and 3.78 µM | 4.01 µM and > 20 µM | 0.733 µM and 1.96 µM | 1.46 µM and 5.09 µM | 
2 | CCOC(=O)/C=C/c1c[nH]c(C(=O)OCC)c1 | > 100 µM | > 100 µM | > 100 µM | > 100 µM | > 100 µM | > 100 µM | > 100 µM |  | > 100 µM |  | > 100 µM |  | > 100 µM | > 100 µM | > 100 µM |  | > 100 µM |  | > 100 µM | > 100 µM
3 | Nc1nc(Cl)cc(NCCCCCCCCCCCCNc2cc(Cl)nc(N)n2)n1 | > 100 µM | > 100 µM | > 100 µM | > 100 µM | 14.5 µM | > 100 µM | > 100 µM |  | 19.3 µM |  | > 100 µM |  | 30 µM | > 100 µM |  |  | > 100 µM |  | > 100 µM | 44.5 µM
4 | ClCc1ccc2ccc3ccc(CCl)nc3c2n1 |  | 3.44 µM | 3.48 µM | 4.69 µM | 2.9 µM | 2.32 µM | 4.02 µM |  | 3.63 µM |  | 22.4 µM |  | 4 µM | 8.59 µM | 7.82 µM |  | 2.89 µM |  | 4.81 µM | 3.17 µM
